# Assay results taken from patent EP4813383A1, “USE OF TAFAMIDIS AND PHARMACEUTICALLY ACCEPTABLE SALT THEREOF IN PREVENTION, ALLEVIATION, OR TREATMENT OF DISEASES ASSOCIATED WITH HIF-2a” (Huaya Jiyuan (Shenzhen) Pharmaceutical Co., Ltd., priority 2024, dated 2025).
# Columns and labels:
# [1] = test system: 5/6 nephrectomy (5/6Nx) rat model; experiment: 5/6 nephrectomy (5/6Nx) rat model; assay type: in vivo, Male Sprague Dawley (SD) rats
# Excerpt: Male Sprague Dawley (SD) rats are used to establish a renal injury-induced anemia model through 5/6 nephrectomy surgery to investigate the erythropoiesis-promoting effect of tafamidis. After a one-week acclimation period, the rats are anesthetized with isoflurane, and the left kidney is exposed through a midline abdominal incision. Ligatures are placed at the upper one-third and lower one-third positions of the kidney, and the corresponding renal tissues outside the ligatures are excised. After a one-week recovery period, the right kidney is excised, with eight rats assigned to the nephrectomy group and the remaining eight rats serving as a non-operated normal control group. At week 4, renal dysfunction in the operated rats is confirmed by assessing serum urea and creatinine levels. Tafamidis and roxadustat are dissolved in a vehicle containing 10% dimethyl sulfoxide (DMSO), 30% polyethylene glycol 400 (PEG 400), 5% Tween-80, 1% hydrochloric acid (113.3 mM), 9% 0.1 N sodium hydroxide, and 45% normal saline. […] Starting from week 6, the tafamidis treatment group and the roxadustat group are orally administered the corresponding compound at 10 mg/kg daily (10 mg orally per day per 1 kg body weight of rat) for four weeks, while the sham-operated group and the 5/6 nephrectomy model (5/6Nx) rats are administered the vehicle based on the same dosing regimen. Hematological analysis is performed weekly, and urine samples are collected on the day following the final treatment, so as to determine urinary total protein (UTP) and urinary creatinine (UCREA). Hematological analysis is performed using the Sysmex Europe XN-2000 automated hematology analyzer, and urinalysis is performed using the Cobas C501 automated analyzer, both using commercially available kits in accordance with the manufacturers' instructions. After sample collection, the rats are euthanized. Statistical significance is determined by one-way analysis of variance (ANOVA), and then a Dunnett's test is performed for comparison with the 5/6Nx group (*P < 0.05, **P < 0.01, ***P < 0.001).
# [2] = test system: erythropoietin (EPO) gene expression; experiment: qRT-PCR assay of EPO gene expression in 786-O renal carcinoma cells; assay type: cell-based; conditions: 20 µM, 24 hours, relative to the vehicle, GAPDH internal control
# Experimental: Experimental method: 786-O renal carcinoma cells are seeded into a 12-well plate. After 24 hours, tafamidis is added at different concentrations (1 µM, 10 µM, and 20 µM, separately), and the cells are co-incubated with the compound for 24 hours. No treatment is applied to the vehicle group. RNA is extracted using a TRIZOL reagent. cDNA transcription is performed using an All-in-one™ First-Strand cDNA Synthesis Kit (for specific operating procedures, see the manufacturer's instructions). A SYBR reagent is used for fluorescence signal detection, and GAPDH is used as an internal control. The qRT-PCR primers are as follows: • GAPDH_fwd, […]; • GAPDH_rev, TGGTGAAGACGCCAGTGGA; • VEGF_fwd, […]; • VEGF_rev, […]; • EPO_fwd, […]; • EPO_rev, […].
# [3] = test system: aristolochic acid-induced zebrafish model; experiment: Aristolochic acid-induced zebrafish model: cardiac erythrocyte staining intensity (renal anemia); assay type: in vivo, Wild-type AB strain zebrafish; conditions: 30 hours, normal group 100%, model group 46%
# Experimental: Wild-type AB strain zebrafish at 2 days post-fertilization are randomly selected and placed in a 6-well plate, with 30 zebrafish treated in each well (treatment group). Other than the normal control group, all treatment groups are exposed to aristolochic acid in aqueous solution to establish a zebrafish renal anemia model. After treatment at 28 °C for 18 hours, a normal control group and a model control group are set up simultaneously. Tafamidis samples are administered in aqueous solution to the treatment groups separately (at concentrations of 0.1 µM and 1 µM separately). Water is administered to the normal control group and the model control group correspondingly, with a volume of 3 mL per well. After continued treatment at 28 °C for 30 hours, staining is performed using o-dianisidine. After staining, 10 zebrafish are randomly selected from each treatment group and photographed under a dissecting microscope. Data is collected using NIS-Elements D 3.20 advanced image processing software, and the staining intensity of cardiac erythrocytes in the zebrafish is analyzed. The statistical significance of this indicator is used to evaluate the efficacy of the sample in alleviating renal anemia. Statistical analysis is performed using SPSS 26.0 software, and p < 0.05 indicates a statistically significant difference.
# [4] = test system: aristolochic acid-induced zebrafish model; experiment: Aristolochic acid-induced zebrafish chronic kidney disease model: renal edema incidence; assay type: in vivo, Wild-type AB strain zebrafish; conditions: 1 µM in aqueous solution, 30 hours; model group 100%
# Experimental: Wild-type AB strain zebrafish at 2 days post-fertilization (2 dpf) are randomly selected and placed in a 6-well plate, with 30 zebrafish treated in each well (treatment group). Other than the normal control group, all treatment groups are exposed to aristolochic acid in aqueous solution to establish a zebrafish renal anemia model. After treatment at 28 °C for 18 hours, a normal control group and a model control group are set up simultaneously. Tafamidis samples are administered in aqueous solution to the treatment groups separately (at concentrations of 20 µM, 10 µM, and 1 µM separately, each concentration being tested in triplicate). Water is administered to the normal control group and the model control group correspondingly, with a volume of 3 mL per well.
# [5] = test system: aristolochic acid-induced zebrafish model; experiment: Aristolochic acid-induced zebrafish model: glomerular filtration (whole-body fluorescence of tracer); assay type: in vivo, Wild-type AB strain zebrafish; conditions: 1 µM in aqueous solution; normal group 100%, model group 239%
# Experimental: Wild-type AB strain zebrafish at 2 days post-fertilization are randomly selected and placed in a 6-well plate, with 30 zebrafish treated in each well (treatment group). Other than the normal control group, all treatment groups are exposed to aristolochic acid in aqueous solution to establish a zebrafish renal anemia model. After treatment at 28 °C for 18 hours, a normal control group and a model control group are set up simultaneously. Tafamidis samples are administered in aqueous solution to the treatment groups separately (at concentrations of 0.1 µM and 1 µM separately). Water is administered to the normal control group and the model control group correspondingly, with a volume of 3 mL per well. After continued treatment at 28 °C for 4 hours, all treatment groups are intravenously injected with a fluorescent tracer (dextran tetramethylrhodamine). After a further 1 day of treatment at 28 °C, 10 zebrafish are randomly selected from each treatment group and photographed under a fluorescence microscope. Data are analyzed and collected using NIS-Elements D 3.20 advanced image processing software, and whole-body fluorescence intensity in the zebrafish is analyzed. Statistical analysis of this indicator is used to evaluate the efficacy of the samples in repairing renal injury. Statistical results are expressed as mean±SE. […]
# [6] = 10 mg/kg daily oral for four weeks, urine on the day after final treatment
Structure (SMILES),"UTP excretion levels, increase compared with the 5/6Nx group ([1]; 10 mg/kg daily oral for four weeks, urine on the day after final treatment, p < 0.01)","RBC levels (erythrocytosis) ([1]; 10 mg/kg daily oral, day 14, against the physiological range of the healthy control group)",upregulates erythropoietin (EPO) gene expression [2],cardiac red blood cell count ([3]; 0.1 µM in aqueous solution),cardiac red blood cell count ([3]; 1 µM in aqueous solution),renal edema incidence [4],glomerular filtration rate [5],"UTP excretion levels [1, 6]","effect on UCREA [1, 6]","red blood cell (RBC) count ([1]; 10 mg/kg daily oral, week 4, 5/6Nx group 7.7 ± 0.3 × 10^12, p < 0.05)"
Cc1nc(C(=O)NCC(=O)O)c(O)c2ccc(Oc3ccccc3)cc12 [roxadustat],3.3 fold,notable erythrocytosis,,,,,,,,
"O=C(O)c1ccc2nc(-c3cc(Cl)cc(Cl)c3)oc2c1 [tafamidis, 2-(3,5-dichlorophenyl)-1,3-benzoxazole-6-carboxylic acid]",,,0.9 fold,60%,65%,80%,158%,remain at baseline levels,essentially no effect,8.2 ± 0.3 × 10^12 cells/L
